Here are results for one compound from patent US20120220554A1, “Combretastatins for Prevention of Posterior Capsule Opacification” (OXIGENE, INC., priority 2010, published 2012).

The test system of assay [1] is polymerized tubulin in primary bovine lens epithelial cells. As to the kind of experiment: Anti-tubulin immunofluorescence of primary lens epithelial cells on the lens capsule. It is filed as cell-based. Conditions: single 30 min treatment with 1 μM CA4P, at 30 min after start and up to 48 h after end of exposure (FIG. 5). An excerpt:
(§1) Bovine eyes were obtained from Coast and County Meat Group (Felling, UK) on the day of culling and lenses were dissected out of the eyes under a sterile tissue culture hood as described below. After generous dousing in 70% ethanol, eyes were cut open using a major surgical blade (Swann-Morton, UK) via a single cut, parallel and posterior to the cornea-conjunctiva limit. The eye was then inverted and the vitreous removed. The lens was freed from the ciliary fibers and immediately placed anterior face down in a SYLGARD-covered (Dow Corning, Germany) well of a 12-well tissue culture plate (Greiner Bio-One, UK). The posterior side of the lens capsule was cut in a Y-shape fashion by a thin scalpel and the resulting flaps pulled back and pinned onto the SYLGARD. The fiber mass was removed by gently rolling it off the anterior lens capsule, thus leaving most of the primary lens epithelial cell layer attached onto the anterior lens capsule. This primary lens epithelial cell layer was then cultured on its original lens capsule at 37° C., 5% CO2, in 0% FCS-supplemented tissue culture.
[…] Immediately after the end of the CA4P exposure and 48 h after the end of the CA4P exposure, the presence of polymerized tubulin in the primary lens epithelial cell layers was investigated by immunofluorescence. […]

The subject of assay [2] is Primary bovine lens epithelial cells. The experiment in a line: Wound edge migration, multi-layering and EMT hallmarks of primary lens epithelial cells on the lens capsule. It is filed as cell-based. The protocol: We tested CA4P as a potential inhibitor of lens epithelial cells epithelial-mesenchymal transition (EMT) during posterior capsular opacification (PCO), a common complication of cataract surgery. […] This effect persisted up to 48 h after CA4P exposure. Lens epithelial cell proliferation was also affected, as assayed by Ki67 immunofluorescence, MTT-based cell viability assays and cell cycle analysis by flow cytometry. Hallmarks of EMT, namely loss of cell polarity and migratory behavior, were also investigated in primary bovine lens epithelial cells grown on the lens capsule and were decreased by CA4P exposure, although cell multilayering seemed unaffected.
(FIG. 5). In addition, primary bovine lens epithelial cells grown on the lens capsule in serum-free conditions for 48 h move away from the wound edge.

A further assay has as its system ERK 1/2 (p42 and p44). As to the kind of experiment: Erk 1/2 phosphorylation immunoblot in primary lens epithelial cells. It is filed as cell-based, bovine. Conditions: primary cells after dissection; 30 min 1 mM CA4P; immediately and 1 h after end of exposure (FIG. 7).
From the text: as §1, with “The fiber mass was removed by gently rolling it off the anterior lens capsule, thus leaving most of the primary lens epithelial cell layer attached onto the anterior lens capsule. This primary lens epithelial cell layer was then cultured on its original lens capsule at 37° C., 5% CO2, in 0% FCS-supplemented tissue culture.” left out
Immediately after dissection, primary lens epithelial cells were exposed for 30 min to 1 mM CA4P diluted in 0% FCS medium, after which they were returned to 0% FCS-supplemented medium. […] After total protein quantification of the extracts by Bicinchoninic Acid (BCA) assay (ThermoScientific, UK), 20 μg of extract were loaded per lane of a 12% acrylamide denaturing gel, which was run at 200V for 40 min, followed by blotting onto a nitrocellulose membrane at 0.8 mA/cm^2 for 2 h and blocking in either milk (Erk 1/2) or BSA (GAPDH) in TTBS (0.2% Tween (vol/vol), 150 mM NaCl, 20 mM Tris.HCl pH 7.4) for 1 h at room temperature. […]

A further assay has as its system phospho-Erk in BIE cells. As to the kind of experiment: Erk phosphorylation immunoblot in BIE cells. Type of assay: cell-based, bovine. The protocol:
Phospho-Erk ½ levels were elevated immediately after the end of CA4P exposure in both control and treated cells and decreased 1 h after the end of CA4P exposure in both control and treated cells (FIG. 7). […] Therefore, it could be hypothesized that, in primary cells, a general stress response due to dissection will mask CA4P's effect on Erk phosphorylation. Phosphorylated p38 and JNK levels were not affected by CA4P treatment (data not shown).
(Immunoblotting shows a protein as a band on a membrane.)

The mark [3] stands for this setting: 30 min exposure to 1 mM CA4P immediately after wounding, serum-free, 48 h (data not shown).

`COc1ccc(/C=C\c2cc(OC)c(OC)c(OC)c2)cc1OP(=O)(O)O` [CA4P, combretastatin A-4 phosphate]: the “polymerized tubulin (immunofluorescence)” value in assay [1] was “loss of polymerized tubulin”. In addition, in assay [2] (setting [3]), the cell multi-layering result was “does not prevent cell multi-layering”. Also, the “cells moving away from the wound edge” value in assay [2] (setting [3]) is “prevents the cells from leaving the wound edge”. Moreover, the “hallmarks of EMT: loss of cell polarity and migratory behavior” value in assay [2] (primary bovine lens epithelial cells grown on the lens capsule) is given as “decreased”. For the same compound, the Erk phosphorylation entry with ERK 1/2 (p42 and p44) is “not affected”. Further, the phospho-Erk levels entry was “returned to control levels” with phospho-Erk in BIE cells (1 h after the end of CA4P exposure) and “elevated” in the assay on phospho-Erk in BIE cells (immediately after the end of CA4P exposure).
